Measurements: patent US20240076297A1, “ADENOSINE A2A AND A2B RECEPTOR DUAL ANTAGONISTS FOR IMMUNO-ONCOLOGY” (Merck Sharp & Dohme LLC, priority 2020, published 2024)

Target: human A2A adenosine receptor (Homo sapiens (Human), UniProt P29274)
Assay: A2A binding affinity using radioligand binding, Method (A)
Conditions: Method (A): filtration radioligand binding, [3H] SCH58261, membranes expressing human A2A
Source text: Method (A) describes the procedure used to measure A2A binding affinity using radioligand binding. Method (B) describes the procedure used to measure A2A binding affinity using SPA technology. The method used to measure A2B binding affinity is also described below. The method used to determine the A2A IC50 value reported for each compound in the table is indicated next to the reported value. The A2B IC50 value measured using the A2B binding affinity assay is shown in the table next to the compound under the corresponding A2A value.
The A2A receptor affinity binding assay measured the amount of binding of a tritiated ligand with high affinity for the A2A adenosine receptor to membranes made from HEK293 or CHO cells recombinantly expressing the human A2A adenosine receptor, in the presence of varying concentrations of a compound of the invention. The data were generated using either filtration binding or a homogenous scintillation proximity assay (SPA).
Method (A): Measurement of A2A Binding Affinity Using Radioligand Binding
148 μL (5 μg/mL) membranes (Perkin Elmer, Cat. No. RBHA2aM400UA) and 2 μL compounds of the invention to be tested (test compound) were transferred to individual wells of a 96-well polypropylene assay plate and incubated for 15 to 30 min at room temperature. [^3H] SCH58261 ((7-(2-phenylethyl)-5-amino-2-(2-furyl)-pyrazolo-[4,3-e]-1,2,4-triazolo[1,5-c]pyrimidine)) was diluted in assay buffer (50 mM Tris pH 7.4, 10 mM MgCl2, 0.005% Tween20) to a concentration of 4 nM and 50 μL transferred to each well of the assay plate. To define total and non-specific binding, wells containing 1% DMSO and 1 μM ZM241385 (Tocris Bioscience, Cat. No. 1036) respectively, were also included. The assay plate was incubated at room temperature for 60 min with agitation. Using a FilterMate Harvester® (Perkin Elmer), the contents of the assay plate were filtered through a UniFilter-96® PEI coated plate (Perkin Elmer Cat. No. 6005274 or 6005277). Filtering was achieved by aspirating the contents of the assay plate for 5 sec, then washing and aspirating the contents three times with ice-cooled wash buffer (50 mM Tris-HCl pH 7.4, 150 mM NaCl) and allowing the vacuum manifold to dry the plate for 30 sec. The filter plate was incubated for at least 1 h at 55° C. and allowed to dry. The bottom of the filter plate was sealed with backing tape. 40 μL Ultima Gold™ (Perkin Elmer, Cat. No. 6013329) was added to each well of the filter plate and the top of the plate was sealed with TopSeal-A PLUS® clear plate seal (Perkin Elmer, Cat. No. 6050185). The plate was incubated for at least 20 min, and then the amount of radioactivity remaining in each well was determined using a TopCount® (Perkin Elmer) scintillation counter. After normalization to total and non-specific binding, the percent effect at each compound concentration was calculated. The plot of percent effect versus the log of compound concentration was analyzed electronically using a 4-parameter logistic fit based on the Levenberg-Marquardt algorithm to generate IC50 values.

Chain of human A2A adenosine receptor (P29274 whole entry): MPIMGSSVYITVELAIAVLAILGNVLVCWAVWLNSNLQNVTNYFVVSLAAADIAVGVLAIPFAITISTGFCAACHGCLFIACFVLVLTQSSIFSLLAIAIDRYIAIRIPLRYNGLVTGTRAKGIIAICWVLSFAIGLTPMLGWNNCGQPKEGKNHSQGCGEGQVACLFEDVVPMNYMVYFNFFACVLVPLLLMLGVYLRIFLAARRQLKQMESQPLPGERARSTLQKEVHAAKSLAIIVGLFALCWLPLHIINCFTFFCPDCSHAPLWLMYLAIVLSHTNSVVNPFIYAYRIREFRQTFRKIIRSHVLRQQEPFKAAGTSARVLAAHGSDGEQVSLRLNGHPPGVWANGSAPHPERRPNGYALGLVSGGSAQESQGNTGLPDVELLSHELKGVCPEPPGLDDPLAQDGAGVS

Row | Structure (SMILES) | IC50 [nM]
1 | CC(C)(N)c1ccc([C@@H]2C[C@H]2Cc2nc3c4cc(F)cc(F)c4nc(N)n3n2)cc1 [Example 8.3A, 2-(((1S,2R)-2-(4-(2-aminopropan-2-yl)phenyl)cyclopropyl)methyl)-7,9-difluoro-[1,2,4]triazolo[1,5-c]quinazolin-5-amine] | 38.1
2 | COc1cccc2c1nc(N)n1nc(CCC3CCc4c(nnn4C4CC(F)(F)C4)C3)nc21 (single isomer, unassigned) [Example 5.3A, (S or R)-2-(2-(1-(3,3-difluorocyclobutyl)-4,5,6,7-tetrahydro-1H-benzo[d][1,2,3]triazol-5-yl)ethyl)-7-methoxy-[1,2,4]triazolo-[1,5-c]quinazolin-5-amine] | 0.9
3 | COc1cc(F)cc2c1nc(N)n1nc(CCC3(O)CCc4c(nnn4C4CC(F)(F)C4)C3)nc21 (single isomer, unassigned) [Example 14.3A, (S or R)-5-(2-(5-amino-9-fluoro-7-methoxy-[1,2,4]triazolo[1,5-c]quinazolin-2-yl)ethyl)-1-(3,3-difluorocyclobutyl)-4,5,6,7-tetrahydro-1H-benzo[d][1,2,3]triazol-5-ol] | 1.1
4 | COc1cccc2c1nc(N)n1nc(CCOc3ccc(C(O)(C(F)(F)F)C(F)(F)F)cc3)nc21 [Example 9.1, 2-(4-(2-(5-amino-7-methoxy-[1,2,4]triazolo[1,5-c]quinazolin-2-yl)ethoxy)phenyl)-1,1,1,3,3,3-hexafluoropropan-2-ol] | 1.7
5 | COc1cc(F)cc2c1nc(N)n1nc(CCC3CCc4nn(C(C)C)cc4C3)nc21 (single isomer, unassigned) [Example 5.4B, (R or S)-9-fluoro-2-(2-(2-isopropyl-4,5,6,7-tetrahydro-2H-indazol-5-yl)ethyl)-7-methoxy-[1,2,4]triazolo[1,5-c]quinazolin-5-amine] | 5.5
6 | COc1cccc2c1nc(N)n1nc(CC(C)(CO)CO)nc21 [Example 3.2, 2-((5-amino-7-methoxy-[1,2,4]triazolo[1,5-c]quinazolin-2-yl)methyl)-2-methylpropane-1,3-diol] | 10.9
7 | COc1cccc2c1nc(N)n1nc(CCC3CCc4nn(C(C)C)cc4C3)nc21 (single isomer, unassigned) [Example 7.2B, (R or S)-2-(2-(2-isopropyl-4,5,6,7-tetrahydro-2H-indazol-5-yl)ethyl)-7-methoxy-[1,2,4]triazolo[1,5-c]quinazolin-5-amine] | 2.3
8 | COc1cc(F)cc2c1nc(N)n1nc(CCC3CCc4c(cnn4C(C)C)C3)nc21 (single isomer, unassigned) [Example 7.7B, (R or S)-9-fluoro-2-(2-(1-isopropyl-4,5,6,7-tetrahydro-1H-indazol-5-yl)ethyl)-7-methoxy-[1,2,4]triazolo[1,5-c]quinazolin-5-amine] | 2.6
9 | COc1cccc2c1nc(N)n1nc(CC3CC3c3ccc(C(C)(C)O)cc3)nc21 (single isomer, unassigned) [Example 8.6B, 2-(4-((1R,2S or 1S,2S)-2-((5-amino-7-methoxy-[1,2,4]triazolo-[1,5-c]quinazolin-2-yl)methyl)cyclopropyl)phenyl)propan-2-ol] | 0.3
10 | COc1cc(F)cc2c1nc(N)n1nc(CCC3CCn4c(cnc4C4(C(F)(F)F)CC4)C3)nc21 (single isomer, unassigned) [Example 12.3B, (R or S)-9-fluoro-7-methoxy-2-(2-(3-(1-(trifluoromethyl)cyclopropyl)-5,6,7,8-tetrahydroimidazo[1,5-a]pyridin-7-yl)ethyl)-[1,2,4]triazolo[1,5-c]quinazolin-5-amine] | 6.7
11 | CS(=O)(=O)CCCc1nc2c3cc(F)cc(F)c3nc(N)n2n1 [Example 13.19, 7,9-difluoro-2-(3-(methylsulfonyl)propyl)-[1,2,4]triazolo[1,5-c]quinazolin-5-amine] | 21.8
12 | COc1cccc2c1nc(N)n1nc(CCC3CCc4nn(C(C)C)cc4C3)nc21 (single isomer, unassigned) [Example 7.2A, (S or R)-2-(2-(2-isopropyl-4,5,6,7-tetrahydro-2H-indazol-5-yl)ethyl)-7-methoxy-[1,2,4]triazolo[1,5-c]quinazolin-5-amine] | 2.5
13 | Nc1nc2c(F)cc(F)cc2c2nc(CCC3CCn4c(cnc4C4CC(F)(F)C4)C3)nn12 (single isomer, unassigned) [Example 7.4A, (S or R)-2-(2-(3-(3,3-difluorocyclobutyl)-5,6,7,8-tetrahydroimidazo-[1,5-a]pyridin-7-yl)ethyl)-7,9-difluoro-[1,2,4]triazolo[1,5-c]-quinazolin-5-amine] | 31.6
14 | COc1cc(F)cc2c1nc(N)n1nc(CC3CC3c3ccc(C(C)(C)N)cc3)nc21 (single isomer, unassigned) [Example 8.4A, 2-(((1S, 2R or 1R,2S)-2-(4-(2-aminopropan-2-yl)phenyl)-cyclopropyl)methyl)-9-fluoro-7-methoxy-[1,2,4]triazolo-[1,5-c]quinazolin-5-amine] | 10.2
15 | COc1ccc2c(c1)nc(N)n1nc(CCS(=O)(=O)C3CC3)nc21 [Example 13.6, 2-(2-(cyclopropylsulfonyl)ethyl)-8-methoxy-[1,2,4]triazolo[1,5-c]quinazolin-5-amine] | 8.2
16 | COc1cc(F)cc2c1nc(N)n1nc(Cc3cnn(CCC(C)(C)O)c3)nc21 [Example 16.5, 4-(4-((5-amino-9-fluoro-7-methoxy-[1,2,4]triazolo[1,5-c]-quinazolin-2-yl)methyl)-1H-pyrazol-1-yl)-2-methylbutan-2-ol] | 43.4
17 | COc1cc(F)cc2c1nc(N)n1nc(CCC3CCn4c(cnc4C4CC(F)(F)C4)C3)nc21 (single isomer, unassigned) [Example 7.3A, (S or R)-2-(2-(3-(3,3-difluorocyclobutyl)-5,6,7,8-tetrahydroimidazo-[1,5-a]pyridin-7-yl)ethyl)-9-fluoro-7-methoxy-[1,2,4]triazolo[1,5-c]-quinazolin-5-amine] | 2.8
18 | COc1cc(F)cc2c1nc(N)n1nc(CCC3CCc4c(nnn4C4CC(F)(F)C4)C3)nc21 (single isomer, unassigned) [Example 7.6B, (R or S)-2-(2-(1-(3,3-difluorocyclobutyl)-4,5,6,7-tetrahydro-1H-benzo[d][1,2,3]triazol-5-yl)ethyl)-9-fluoro-7-methoxy-[1,2,4]-triazolo[1,5-c]quinazolin-5-amine] | 4.2
19 | COc1cccc2c1nc(N)n1nc(CCS(=N)(=O)C3CC3)nc21 (single isomer, unassigned) [Example 11.1A, (S or R)-(2-(5-amino-7-methoxy-[1,2,4]triazolo[1,5-c]quinazolin-2-yl)ethyl)(cyclopropyl)(imino)-26-sulfanone] | 1.2
20 | COc1cccc2c1nc(N)n1nc(CCC3CCc4c(nnn4C(C)C)C3)nc21 (single isomer, unassigned) [Example 5.2A, (S or R)-2-(2-(1-isopropyl-4,5,6,7-tetrahydro-1H-benzo[d][1,2,3]triazol-5-yl)ethyl)-7-methoxy-[1,2,4]triazolo[1,5-c]quinazolin-5-amine] | 0.7
21 | COc1cc(F)cc2c1nc(N)n1nc(CCC3CCc4c(cnn4C(C)C)C3)nc21 (single isomer, unassigned) [Example 7.7A, (S or R)-9-fluoro-2-(2-(1-isopropyl-4,5,6,7-tetrahydro-1H-indazol-5-yl)ethyl)-7-methoxy-[1,2,4]triazolo[1,5-c]quinazolin-5-amine] | 5.5
22 | COc1cccc2c1nc(N)n1nc(CCC3CCc4c(cnn4C(C)C)C3)nc21 (single isomer, unassigned) [Example 7.8A, (S or R)-2-(2-(1-isopropyl-4,5,6,7-tetrahydro-1H-indazol-5-yl)-ethyl)-7-methoxy-[1,2,4]triazolo[1,5-c]quinazolin-5-amine] | 2.1
23 | CCOC(=O)CCCn1cc(Cc2nc3c4cc(F)cc(OC)c4nc(N)n3n2)cn1 [Example 16.3, ethyl 4-(4-((5-amino-9-fluoro-7-methoxy-[1,2,4]triazolo[1,5-c]quinazolin-2-yl)methyl)-1H-pyrazol-1-yl)butanoate] | 14.9
